From US20060069132A1, “Azolecarboxamide herbicides” (priority 2004, published 2006)

Tests used:
[1] = test system: barnyardgrass; assay: Test B pre-/postemergence herbicide test; format: in vivo, Echinochloa crus-galli; settings: for Barnyardgrass plant response rating (0 to 100 scale) / Plant response rating, Barnyardgrass: 0 = no effect, 100 = complete control, preemergence; for Barnyardgrass plant response rating: postemergence
Procedure, shortened: (§1)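 Species tested were Echinochloa crus-galli, Ipomoea coccinea, Xanthium strumarium and Oryza sativa, treated both before emergence and at the 1- to 4-leaf stage; rice and barnyardgrass were also tested under flooding at 2 leaves. Greenhouse incubation lasted 13–15 days before visual 0–100 scoring.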

[2] = test system: Surinam grass; assay: Test B pre-/postemergence herbicide test; format: in vivo, Urochloa decumbens; settings: for Surinam Grass plant response rating (0 to 100 scale) / Plant response rating, Surinam Grass: 0 = no effect, 100 = complete control, preemergence; for Surinam Grass plant response rating: postemergence
Procedure, shortened: (§2)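 Flooded paddy rice and barnyardgrass were treated at the 2-leaf stage; upland plantings received compound either on sown seed or on 1- to 4-leaf seedlings. All were kept 13–15 days in a greenhouse and scored visually, 0–100, relative to untreated plants.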

[3] = test system: cocklebur; assay: Test B pre-/postemergence herbicide test; format: in vivo, Xanthium strumarium; settings: for Cocklebur plant response rating (0 to 100 scale) / Plant response rating, Cocklebur: 0 = no effect, 100 = complete control, preemergence; for Cocklebur plant response rating: postemergence
Procedure, shortened: as §1

[4] = test system: corn; assay: Test B pre-/postemergence herbicide test; format: in vivo, Zea mays; settings: for Corn plant response rating (0 to 100 scale) / Plant response rating, Corn: 0 = no effect, 100 = complete control, preemergence; for Corn plant response rating: postemergence
Procedure, shortened: as §2

[5] = test system: large crabgrass; assay: Test B pre-/postemergence herbicide test; format: in vivo, Digitaria sanguinalis; settings: for Crabgrass, Large plant response rating (0 to 100 scale) / Plant response rating, Crabgrass, Large: 0 = no effect, 100 = complete control, preemergence; for Crabgrass, Large plant response rating: postemergence
Procedure, shortened: as §2

[6] = test system: giant foxtail; assay: Test B pre-/postemergence herbicide test; format: in vivo, Setaria faberi; settings: for Foxtail, Giant plant response rating (0 to 100 scale) / Plant response rating, Foxtail, Giant: 0 = no effect, 100 = complete control, preemergence; for Foxtail, Giant plant response rating: postemergence
Procedure, shortened: as §2

[7] = test system: lambsquarters; assay: Test B pre-/postemergence herbicide test; format: in vivo, Chenopodium album; settings: for Lambsquarters plant response rating (0 to 100 scale) / Plant response rating, Lambsquarters: 0 = no effect, 100 = complete control, preemergence; for Lambsquarters plant response rating: postemergence
Procedure, shortened: as §2

[8] = test system: morningglory; assay: Test B pre-/postemergence herbicide test; format: in vivo, Ipomoea coccinea; settings: for Morningglory plant response rating (0 to 100 scale) / Plant response rating, Morningglory: 0 = no effect, 100 = complete control, preemergence; for Morningglory plant response rating: postemergence
Procedure, shortened: as §1

[9] = test system: pigweed; assay: Test B pre-/postemergence herbicide test; format: in vivo, Amaranthus retroflexus; settings: for Pigweed plant response rating (0 to 100 scale) / Plant response rating, Pigweed: 0 = no effect, 100 = complete control, preemergence; for Pigweed plant response rating: postemergence
Procedure, shortened: as §2

[10] = test system: velvetleaf; assay: Test B pre-/postemergence herbicide test; format: in vivo, Abutilon theophrasti; settings: for Velvetleaf plant response rating: postemergence; for Plant response rating, Velvetleaf: 0 = no effect, 100 = complete control, preemergence
Procedure, shortened: as §2

[11] = test system: wheat; assay: Test B postemergence herbicide test; format: in vivo, Triticum aestivum; set-up: key to Wheat plant response rating: 0 = no effect, 100 = complete control; settings: postemergence
Procedure, shortened: (§3)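 Treated at 2-leaf (paddy) or 1–4-leaf, 2–18 cm (postemergence); greenhouse 13–15 d; visual score vs control, 0 none to 100 complete control; dash = not tested.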

[12] = test system: wild oat; assay: Test B postemergence herbicide test; format: in vivo, Avena fatua; settings: postemergence
Procedure, shortened: as §3

[13] = test system: rice; assay: Test B flooded paddy test; format: in vivo, Oryza sativa; settings: 1000 g ai/ha, scale 0 to 100 (0 no effect, 100 complete control)
Procedure, shortened: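 After treating 2-leaf paddy plants or 2–18 cm postemergence plants (1 to 4 leaves) with formulated chemical, researchers kept them in a greenhouse for 13–15 days. Effects were judged visually versus controls: 0 indicates none, 100 total control.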

[14] = test system: small flower umbrella sedge; assay: Test B flooded paddy test; format: in vivo, Cyperus difformis; settings: 1000 g ai/ha, scale 0 to 100 (0 no effect, 100 complete control)
Procedure, shortened: (§4)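 Plants grow to 1- to 4-leaf stage (2–18 cm) for postemergence spraying, or to 2-leaf stage for the paddy test. Formulated compound is applied. Greenhouse holding lasts 13–15 days. Response is scored visually relative to controls, 0 no effect to 100 complete control; a dash means no result.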

[15] = test system: barnyardgrass; assay: Test B flooded paddy test; format: in vivo, Echinochloa crus-galli; settings: 1000 g ai/ha, scale 0 to 100 (0 no effect, 100 complete control)
Procedure, shortened: as §4

[16] = 125 g ai/ha, visual rating, scale 0 (no effect) to 100 (complete control)
[17] = 500 g ai/ha, scale 0 to 100, 0 is no effect, 100 is complete control

SMILES: CCn1nc(C(C)(C)C)cc1C(=S)Nc1cc(C(=S)N(C)C)ccc1F [Compound 305]
- Barnyardgrass plant response rating (0 to 100 scale) ([1]; 125 g ai/ha): 80
- Barnyardgrass plant response rating [1, 16]: 0
- Plant response rating, Barnyardgrass ([1]; 500 g ai/ha, visual rating): 90
- Barnyardgrass plant response rating [1, 17]: 0
- Surinam Grass plant response rating (0 to 100 scale) ([2]; 125 g ai/ha): 80
- Surinam Grass plant response rating [2, 16]: 0
- Plant response rating, Surinam Grass ([2]; 500 g ai/ha, visual rating): 100
- Surinam Grass plant response rating [2, 17]: 20
- Cocklebur plant response rating (0 to 100 scale) ([3]; 125 g ai/ha): 50
- Cocklebur plant response rating [3, 16]: 10
- Plant response rating, Cocklebur ([3]; 500 g ai/ha, visual rating): 70
- Cocklebur plant response rating [3, 17]: 10
- Corn plant response rating (0 to 100 scale) ([4]; 125 g ai/ha): 10
- Corn plant response rating [4, 16]: 70
- Plant response rating, Corn ([4]; 500 g ai/ha, visual rating): 60
- Corn plant response rating [4, 17]: 70
- Crabgrass, Large plant response rating (0 to 100 scale) ([5]; 125 g ai/ha): 90
- Crabgrass, Large plant response rating [5, 16]: 0
- Plant response rating, Crabgrass, Large ([5]; 500 g ai/ha, visual rating): 100
- Crabgrass, Large plant response rating [5, 17]: 0
- Foxtail, Giant plant response rating (0 to 100 scale) ([6]; 125 g ai/ha): 80
- Foxtail, Giant plant response rating [6, 16]: 20
- Plant response rating, Foxtail, Giant ([6]; 500 g ai/ha, visual rating): 100
- Foxtail, Giant plant response rating [6, 17]: 20
- Lambsquarters plant response rating (0 to 100 scale) ([7]; 125 g ai/ha): 100
- Lambsquarters plant response rating [7, 16]: 50
- Plant response rating, Lambsquarters ([7]; 500 g ai/ha, visual rating): 100
- Lambsquarters plant response rating [7, 17]: 80
- Morningglory plant response rating (0 to 100 scale) ([8]; 125 g ai/ha): 0
- Morningglory plant response rating [8, 16]: 0
- Plant response rating, Morningglory ([8]; 500 g ai/ha, visual rating): 0
- Morningglory plant response rating [8, 17]: 0
- Pigweed plant response rating (0 to 100 scale) ([9]; 125 g ai/ha): 100
- Pigweed plant response rating [9, 16]: 0
- Plant response rating, Pigweed ([9]; 500 g ai/ha, visual rating): 100
- Pigweed plant response rating [9, 17]: 70
- Velvetleaf plant response rating [10, 16]: 20
- Plant response rating, Velvetleaf ([10]; 500 g ai/ha, visual rating): 100
- Velvetleaf plant response rating [10, 17]: 20
- Wheat plant response rating [11, 16]: 0
- Wheat plant response rating [11, 17]: 10
- Oat, Wild plant response rating [12, 16]: 10
- Oat, Wild plant response rating [12, 17]: 30
- Rice plant response rating [13]: 70
- Sedge, Umbrella plant response rating [14]: 90
- Barnyardgrass plant response rating [15]: 90

SMILES: CCNC(=O)c1cccc(NC(=O)c2cc(C3(C)CC3)nn2CC)c1 [Compound 306]
- Barnyardgrass plant response rating (0 to 100 scale) ([1]; 125 g ai/ha): 60
- Barnyardgrass plant response rating [1, 16]: 10
- Plant response rating, Barnyardgrass ([1]; 500 g ai/ha, visual rating): 90
- Barnyardgrass plant response rating [1, 17]: 10
- Surinam Grass plant response rating (0 to 100 scale) ([2]; 125 g ai/ha): 30
- Surinam Grass plant response rating [2, 16]: 10
- Plant response rating, Surinam Grass ([2]; 500 g ai/ha, visual rating): 90
- Surinam Grass plant response rating [2, 17]: 30
- Cocklebur plant response rating (0 to 100 scale) ([3]; 125 g ai/ha): 0
- Cocklebur plant response rating [3, 16]: 30
- Plant response rating, Cocklebur ([3]; 500 g ai/ha, visual rating): 50
- Cocklebur plant response rating [3, 17]: 70
- Corn plant response rating (0 to 100 scale) ([4]; 125 g ai/ha): 70
- Corn plant response rating [4, 16]: 30
- Plant response rating, Corn ([4]; 500 g ai/ha, visual rating): 100
- Corn plant response rating [4, 17]: 30
- Crabgrass, Large plant response rating (0 to 100 scale) ([5]; 125 g ai/ha): 100
- Crabgrass, Large plant response rating [5, 16]: 10
- Plant response rating, Crabgrass, Large ([5]; 500 g ai/ha, visual rating): 100
- Crabgrass, Large plant response rating [5, 17]: 50
- Foxtail, Giant plant response rating (0 to 100 scale) ([6]; 125 g ai/ha): 40
- Foxtail, Giant plant response rating [6, 16]: 10
- Plant response rating, Foxtail, Giant ([6]; 500 g ai/ha, visual rating): 100
- Foxtail, Giant plant response rating [6, 17]: 40
- Lambsquarters plant response rating (0 to 100 scale) ([7]; 125 g ai/ha): 100
- Lambsquarters plant response rating [7, 16]: 70
- Plant response rating, Lambsquarters ([7]; 500 g ai/ha, visual rating): 100
- Lambsquarters plant response rating [7, 17]: 80
- Morningglory plant response rating (0 to 100 scale) ([8]; 125 g ai/ha): 10
- Plant response rating, Morningglory ([8]; 500 g ai/ha, visual rating): 10
- Morningglory plant response rating [8, 17]: 70
- Pigweed plant response rating (0 to 100 scale) ([9]; 125 g ai/ha): 100
- Pigweed plant response rating [9, 16]: 70
- Plant response rating, Pigweed ([9]; 500 g ai/ha, visual rating): 100
- Pigweed plant response rating [9, 17]: 100
- Velvetleaf plant response rating [10, 16]: 40
- Plant response rating, Velvetleaf ([10]; 500 g ai/ha, visual rating): 100
- Velvetleaf plant response rating [10, 17]: 60
- Wheat plant response rating [11, 16]: 10
- Wheat plant response rating [11, 17]: 20
- Oat, Wild plant response rating [12, 16]: 20
- Oat, Wild plant response rating [12, 17]: 30
- Rice plant response rating [13]: 60
- Sedge, Umbrella plant response rating [14]: 80
- Barnyardgrass plant response rating [15]: 80
